Read-outs that look alike come from different tables or passages of the source.
What was measured:
KSP motor domain = molecular target: T1, KSP motor domain (Homo sapiens, UniProt P52732); experiment: biochemical; settings: read-out: IC50
T1 sequence (P52732 18-359 limits assumed): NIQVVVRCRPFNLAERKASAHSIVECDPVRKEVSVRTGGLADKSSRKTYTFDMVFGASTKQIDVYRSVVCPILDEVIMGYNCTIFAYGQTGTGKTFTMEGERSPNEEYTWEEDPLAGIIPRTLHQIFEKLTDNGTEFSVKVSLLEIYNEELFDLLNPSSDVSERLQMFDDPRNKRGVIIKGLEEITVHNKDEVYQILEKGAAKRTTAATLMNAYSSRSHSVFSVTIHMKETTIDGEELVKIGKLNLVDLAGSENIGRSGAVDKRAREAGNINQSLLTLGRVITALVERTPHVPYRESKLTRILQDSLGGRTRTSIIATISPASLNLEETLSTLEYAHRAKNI

[1] = KSP inhibitory activity, end-point assay, class symbols (Table 1)

Row | SMILES | melting point | IC50 (KSP motor domain; [1]) | IC50 (KSP motor domain; exact IC50 values, end-point assay (Table 2))
1 | CCOC(=O)c1nc2cc3c(nc2s1)CCC(C(C)(C)C)C3 (racemic) | 84 to 86 °C |  | 
2 | C[C@H]1CN(C(=O)Nc2cccc([C@@H](CN)NC(=O)c3cc4cc5c(nc4s3)CC[C@@H](C(C)(C)C)C5)c2)CCN1 [Example 280] |  | 100 to 1000 nM | 
3 | CC(C)(C)[C@@H]1CCc2nc3sc(C(=O)N[C@H](CN)c4cccc(NCc5ccncc5)c4)cc3cc2C1 [Example 281, 6(R)-tert-Butyl-5,6,7,8,-tetrahydro-thieno[2,3-b]quinoline-2-carboxylic acid (2(S)-amino-1-{3-[(pyridin-4-ylmethyl)-amino]-phenyl}-ethyl)-amide] |  | < 100 nM | 
4 | CC(C)(C)[C@@H]1CCc2nc3sc(C(=O)N[C@H](CN)c4cccc(NCc5cccnc5)c4)cc3cc2C1 [Example 282] |  | < 100 nM | 
5 | CC(C)(C)[C@@H]1CCc2nc3sc(C(=O)N[C@H](CN)c4cccc(NCc5ccccc5)c4)cc3cc2C1 [Example 283] |  | < 100 nM | 
6 | CC(C)(C)C1CCc2nc3sc(C(=O)N[C@H](CN)c4ccsc4)cc3cc2C1 (stereo partly drawn) [Example 284, 6-tert-butyl-5,6,7,8-tetrahydro-thieno[2,3-b]quinoline-2-carboxylic acid (2-amino-1(S)-thiophen-3-yl-ethyl)-amide] |  | < 100 nM | 8 nM

Source: patent publication US20060247320A1, “Compounds for inhibiting KSP kinesin activity” (priority 2005, published 2006)
